Test results as given in patent US20110124867A1, “Process and intermediates for the Synthesis of heterocyclic Substituted Piperazines with CXCR3 Antagonist Activity” (Schering Corporation, priority 2007, published 2011).

Experiments:
[1] = aqueous solubility of salt forms (comparison in words, no method given); assay type: physicochemical; conditions: methylsulfonate salt compared to other salts
[2] = target: T1, CXCR3 (Homo sapiens, UniProt P49682); conditions: statement in words, refers to the '641 application; cited from earlier work
T1 sequence (P49682 1-368): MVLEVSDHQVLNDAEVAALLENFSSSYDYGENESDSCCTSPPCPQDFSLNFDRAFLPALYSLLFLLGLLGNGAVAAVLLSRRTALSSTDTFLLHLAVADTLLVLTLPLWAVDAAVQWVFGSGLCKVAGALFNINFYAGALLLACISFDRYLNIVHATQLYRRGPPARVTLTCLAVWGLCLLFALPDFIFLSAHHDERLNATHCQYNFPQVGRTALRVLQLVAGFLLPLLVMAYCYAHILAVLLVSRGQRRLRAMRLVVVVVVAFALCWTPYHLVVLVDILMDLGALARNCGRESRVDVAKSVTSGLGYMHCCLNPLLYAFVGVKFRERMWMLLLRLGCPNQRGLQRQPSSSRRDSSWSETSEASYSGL

SMILES	aqueous solubility [1]	CXCR3 inhibitor activity [2]
CCNc1nnc(-c2cnc(N3C[C@H](CC)N(C4CCN(C(=O)c5ccc(Cl)cc5)CC4)C[C@H]3C)c(C)n2)o1 [Compound II-1]	higher aqueous solubility	–
CCNc1nnc(-c2cnc(N3C[C@H](CC)N(C4CCN(C(=O)c5ccc(Cl)cc5)CC4)C[C@H]3C)c(C)n2)o1 [Compound A45]	–	useful CXCR3 inhibitor activity
